This is an account of results in PMC12879253 (Molecular pharmaceutics, 2025).

Data set [1] has as its system NCI/ADR-RES ovarian cancer cell. The note with it: overexpresses p-gp; cited from earlier work.
The conditions of data set [2]: aqueous buffer; cited from earlier work.
In data set [3] the test system is NCI/ADR-RES drug resistant ovarian cancer xenografts. Briefly: Efficacy in NCI/ADR-RES xenografts. The data set is classed as in vivo, mouse. The following applies: doxorubicin 2.0 mg/kg iv, terminated after the third dose.

Regarding `CC(=O)O[C@H]1C(=O)[C@@]2(C)[C@H]([C@H](OC(=O)c3ccccc3)[C@]3(O)C[C@H](OC(=O)[C@H](O)[C@@H](NC(=O)c4ccccc4)c4ccccc4)C(C)=C1C3(C)C)[C@]1(OC(C)=O)CO[C@@H]1C[C@@H]2O` [paclitaxel], in data set [1], the “effectiveness in drug-resistant cells” value is given as “not effective”.

Turning to `COc1cccc2c1C(=O)c1c(O)c3c(c(O)c1C2=O)C[C@@](O)(C(=O)CO)C[C@@H]3O[C@H]1C[C@@H]2NCO[C@@H]2[C@H](C)O1` [doxaz, Doxazolidine], in data set [2], the “half-life of hydrolysis to dox” value is on record as 3 min. In addition, the “effectiveness in drug-resistant cells” value in data set [1] is on record as “effective”.

In the case of `COc1cccc2c1C(=O)c1c(O)c3c(c(O)c1C2=O)C[C@@](O)(C(=O)CO)C[C@@H]3O[C@H]1C[C@H](N)[C@H](O)[C@H](C)O1` [dox, Doxorubicin], in data set [3], the body weight loss result is recorded as “more than 20%”. In addition, in data set [1], the “effectiveness in drug-resistant cells” value is reported as “not effective”.
